According to US6569633B1, “Modulation of the sulfonylurea receptor and calcium in adipocytes for treatment of obesity/diabetes” (Artecel Science, Inc., priority 1998, dated 2003):

Assays:
human adipocytes [1] = experiment: Lipolysis (glycerol release into the culture medium) in human adipocytes; type: cell-based
Protocol: FIG. 4. The anti-lipolytic effect of glibenclamide in human adipocytes. Activation of lipolysis in adipocytes is typically measured by release of glycerol into the media. Human adipocytes were treated with 10 μM glibenclamide alone, 10 μM glibenclamide plus 10 μM diazoxide or 10 μM glibenclamide plus 30 μM nitrendipine for 48 hr. Glycerol release was determined as described (19). *p<0.01 vs. Control.
Human adipocytes were examined for changes in lipolysis regulation by measurement of glycerol release into the media. Glycerol was measured by using a standard method (19), although other techniques for measuring glycerol would be equally useful.
Human subcutaneous abdominal adipose tissue was obtained from patients undergoing elective abdominal cosmetic surgery, although other types of adipose tissue, such as mesenteric, retroperitoneal, perirenal, or omental may be useful in identifying these compounds. Preadipocytes are isolated by collagenase treatment of the tissue and cultured adipocytes prepared as described (patent filed; Jan. 29, 1999; Ser. No. 09/240,029). Agents that regulate calcium flux in adipocytes as noted above can mediate lipolysis. Human adipocytes may be cultured in multi-well plates with different treatments between 1 hour or 24 hours as indicated, and glycerol release into the culture medium was determined as an indicator for lipolysis using a one-step enzymatic fluorometric method. The media collected from 1 hr treatments were used directly for glycerol measurements. For 24 hr treatments, media were removed, and cells were washed with Hank's Balanced Salt Solution and incubated in fresh medium for a further 10-60 min. This media were then used for glycerol measurements for 24 hr treatments.
We next investigated the role of adipocyte SUR1 on lipolysis. Lipolysis was measured as follows. Human adipocytes were treated as described below and glycerol release into the culture medium was determined as an indicator for lipolysis using a one step enzymatic fluorometric method (19). After treatment medium was obtained, HClO4 was added for deproteinization.
Agents that regulate calcium flux in adipocytes as noted above can mediate lipolysis. Human adipocytes (1 mL cells/well) were incubated in 24-well plates with different treatments for either 1 hour or 24 hours as indicated, and glycerol release into the culture medium was determined as an indicator for lipolysis using a one-step enzymatic fluorometric method. The media collected from 1 hr treatments were used directly for glycerol measurements. For 24 hr treatments, media were removed, and cells were washed with Hank's Balanced Salt Solution and incubated in fresh medium for a further 30 min. This media were then used for glycerol measurements for 24 hr treatments. After medium was collected, HClO4 was added to give a final concentration of 3% for deproteinization. The sample was centrifuged at 9000×g for 20 min. The supernatant was then collected and neutralized with 10N NaOH. Samples were stored at −80° C. prior to glycerol assay. Cells were collected, homogenized and stored at −80° C. for subsequent total protein correction by a modified Bradford method using Coomassie Blue dye (PIERCE, Rockford, Ill.).

human adipocytes [2] = experiment: Triglyceride accumulation in human adipocytes; type: cell-based; details: control 28.2±4.5
Protocol: Human subcutaneous abdominal adipocytes were isolated from healthy patients undergoing cosmetic liposuction using methodology we have previously described. Briefly, the tissue was washed several times with Hank's Balanced Salt Solution, minced into small fragments and digested with type I collagenase (1 mg/mL) in a shaking water bath at 37° C. for 30-40 minutes. Cells were then filtered through a sterile nylon filter (500 μm mesh) and cultured in Dulbecco's Modified Eagle's Medium (DMEM) supplemented with 1% fetal bovine serum, 1% bovine serum albumin, 100 U/mL penicillin, 100 μg/mL streptomycin and 50 μg/mL gentamicin. Cells were subsequently cultured in suspension in sterile polypropylene flasks in a humidified 37° C./5% CO2 incubator. After one day, suspended (floating) adipocytes were transferred to fresh medium and maintained as a thin layer at the top of the culture medium to ensure access to nutrients. The cells were maintained for another 24 hours in this medium and then changed to fresh medium with the addition of SUR agonists (such as glibenclamide) for up to 48 hours with the compounds to be tested. Medium was changed every 24 hours, and cell viability was verified with trypan blue exclusion at the end of representative experiments.
Stimulation of fatty acid synthase and concomitant inhibition of lipolysis results in increased lipid accumulation in human adipocytes. Adipocytes were treated as described above, harvested, and their triglyceride content was analyzed and normalized for protein content. […] Thus, these calcium-stimulated biochemical activities will contribute to the development of adipocyte hypertrophy and potentially obesity.

For `COc1ccc(Cl)cc1C(=O)NCCc1ccc(S(=O)(=O)NC(=O)NC2CCCCC2)cc1` [glibenclamide], the “lipolysis (glycerol release)” value (human adipocytes [1]; 10 μM glibenclamide, 48 hr, control 0.193±0.050) was 0.061±0.009 NADH μM/mg protein, the inhibition at 10 µM (human adipocytes [1]; Homo sapiens, Adipocyte, 10 μM glibenclamide, 48 hr) was 68% and the inhibition in lipolysis (human adipocytes [1]; SUR agonists such as glibenclamide, general description) was 25-70%. It also gave a triglyceride accumulation (human adipocytes [2]; 2 μM glibenclamide (dose-responsive series)) of 46.1±6.3 μg/mg protein and a triglyceride accumulation (human adipocytes [2]; 10 μM glibenclamide (dose-responsive series)) of 58.0±3.4 μg/mg protein.
